Earlier results in patent publication US20180228811A1, “GDNF INDUCTION FOR THE TREATMENT OF RETINAL DISORDERS” (THE SCHEPENS EYE RESEARCH INSTITUTE, INC., priority 2014, published 2018).

Test system: photoreceptors
Details: rd10 mouse, systemic treatment (Mitton et al. 2014); cited from earlier work

SMILES: CCCC(CCC)C(=O)O [VPA, Valproic acid]
- photoreceptor rescue, result in words: partial photoreceptor rescue
